Test results published in US4468511A, “C-20- And C-23-Modified macrolide derivatives” (Eli Lilly and Company, priority 1983, dated 1984).
Values after ≈ are worked out from the molar mass of the structure shown. Read-outs that look alike come from different tables or passages of the source.

Tests used:
Format in all cases: cell-based
[1] = test system: Haemophilus influenzae 76; assay: MIC, standard agar-dilution assay
Experimental: (§1) The MIC's in Table II were determined by standard agar-dilution assays. The MIC's in Table III were obtained using a conventional broth-dilution microtiter test.

[2] = test system: Haemophilus influenzae C.L.; assay: MIC, standard agar-dilution assay
Experimental: as §1

[3] = test system: Staphylococcus aureus X400; assay: MIC, standard agar-dilution assay
Experimental: as §1

Mycoplasma gallisepticum = assay: MIC, conventional broth-dilution microtiter test; settings: Mycoplasmoides gallisepticum
Experimental: (§2) Certain of the derivatives are active against some gram-negative bacteria, such as Pasteurella species. The MIC's in Table II were determined by standard agar-dilution assays. The MIC's in Table III were obtained using a conventional broth-dilution microtiter test.

[4] = test system: Mycoplasma gallisepticum 34159; assay: MIC, conventional broth-dilution microtiter test; settings: Mycoplasmoides gallisepticum; broth-dilution microtiter; Mycoplasma gallisepticum 34159, Resistant strain; read-out: MIC
Experimental: as §2

[5] = test system: Pasteurella multocida 68C; assay: MIC, conventional broth-dilution microtiter test; settings: broth-dilution microtiter; Pasteurella multocida 68C; read-out: MIC
Experimental: as §2

Staphylococcus aureus = assay: MIC, conventional broth-dilution microtiter test
Experimental: as §2

[6] = test system: Pasteurella hemolytica 41D; assay: MIC, conventional broth-dilution microtiter test
Experimental: as §2

Streptococcus sp. 80 = assay: MIC, conventional broth-dilution microtiter test; settings: broth-dilution microtiter; Streptococcus sp. 80; read-out: MIC
Experimental: as §2

[7] = test system: Pasteurella multocida 40G; assay: MIC, conventional broth-dilution microtiter test; settings: broth-dilution microtiter; Pasteurella multocida 40G; read-out: MIC
Experimental: as §2

[8] = test system: Pasteurella hemolytica 22C; assay: MIC, conventional broth-dilution microtiter test
Experimental: as §2

[9] = test system: Mycoplasma gallisepticum 41313; assay: MIC, conventional broth-dilution microtiter test; settings: Mycoplasmoides gallisepticum; broth-dilution microtiter; Mycoplasma gallisepticum 41313, Resistant strain; read-out: MIC
Experimental: as §2

Mycoplasma hyorhinis = assay: MIC, conventional broth-dilution microtiter test; settings: Mycoplasma
Experimental: as §2

[10] = test system: Pasteurella multocida 17E; assay: MIC, conventional broth-dilution microtiter test; settings: broth-dilution microtiter; Pasteurella multocida 17E, Bovine isolate; read-out: MIC
Experimental: as §2

[11] = test system: Pasteurella hemolytica 23C; assay: MIC, conventional broth-dilution microtiter test
Experimental: as §2

[12] = test system: Pasteurella multocida 60A; assay: MIC, conventional broth-dilution microtiter test; settings: broth-dilution microtiter; Pasteurella multocida 60A, Avian isolate; read-out: MIC
Experimental: as §2

[13] = test system: Pasteurella multocida 22A; assay: MIC, conventional broth-dilution microtiter test; settings: broth-dilution microtiter; Pasteurella multocida 22A; read-out: MIC
Experimental: as §2

[14] = test system: Streptococcus Group D X66; assay: MIC, standard agar-dilution assay
Experimental: as §2

[15] = test system: Streptococcus pyogenes 9960; assay: MIC, standard agar-dilution assay
Experimental: as §2

[16] = test system: Streptococcus pyogenes C203; assay: MIC, standard agar-dilution assay
Experimental: as §2

Escherichia coli TEM = assay: MIC, standard agar-dilution assay; settings: agar-dilution; Escherichia coli TEM; read-out: MIC
Experimental: as §2

[17] = test system: Staphylococcus aureus X1.1; assay: MIC, standard agar-dilution assay; settings: Staphylococcus aureus, X1.1
Experimental: as §2

[18] = test system: Klebsiella pneumoniae KAE; assay: MIC, standard agar-dilution assay; settings: agar-dilution; Klebsiella pneumoniae KAE; read-out: MIC
Experimental: as §2

[19] = test system: Klebsiella pneumoniae X26; assay: MIC, standard agar-dilution assay
Experimental: as §2

[20] = test system: Staphylococcus aureus V41; assay: MIC, standard agar-dilution assay; settings: Staphylococcus aureus, V41
Experimental: as §2

Escherichia coli EC14 = assay: MIC, standard agar-dilution assay
Experimental: as §2

[21] = test system: Streptococcus pneumoniae Park I; assay: MIC, standard agar-dilution assay; settings: Streptococcus pneumoniae
Experimental: as §2

[22] = test system: Staphylococcus epidermidis EPI1; assay: microbe, parasite or virus in culture; settings: Staphylococcus epidermidis, EPI1
Experimental: as §1

[23] = test system: Staphylococcus aureus S13E; assay: microbe, parasite or virus in culture
Experimental: as §1

[24] = test system: Staphylococcus epidermidis EPI2; assay: MIC, standard agar-dilution assay; settings: Staphylococcus epidermidis, EPI2
Experimental: as §1

[25] = agar-dilution, Haemophilus influenzae 76, Ampicillin-resistant strain, read-out: MIC
[26] = agar-dilution, Haemophilus influenzae C.L., Ampicillin-sensitive strain, read-out: MIC
[27] = agar-dilution, Staphylococcus aureus X400, Methicillin-resistant strain, read-out: MIC
[28] = agar-dilution, Streptococcus Group D X66, read-out: MIC
[29] = agar-dilution, Streptococcus 9960, read-out: MIC
[30] = agar-dilution, Streptococcus pyogenes C203, read-out: MIC
[31] = agar-dilution, Klebsiella pneumoniae X26, read-out: MIC
[32] = agar-dilution, Escherichia coli EC14, read-out: MIC

SMILES	MIC [1, 25] [µg/mL]	MIC [2, 26] [µg/mL]	MIC [3, 27] [µg/mL]	MIC (Mycoplasma gallisepticum) [µg/mL]	MIC [4] [µg/mL]	MIC [5] [µg/mL]	MIC (Staphylococcus aureus) [µg/mL]	MIC (Streptococcus sp. 80) [µg/mL]	MIC [7] [µg/mL]	MIC [9] [µg/mL]	MIC [15, 29] [µg/mL]	MIC (Escherichia coli TEM) [µg/mL]	MIC [17] [µg/mL]	MIC [18] [µg/mL]	MIC [20] [µg/mL]	MIC (Escherichia coli EC14; [32]) [µg/mL]	MIC [21] [µg/mL]	MIC [22] [µg/mL]	MIC [23] [µg/mL]	MIC [24] [µg/mL]	other results
CCC1OC(=O)CC(O)C(C)C(OC2OC(C)C(O)C(N(C)C)C2O)C(CCN2C(=O)c3ccccc3C2=O)CC(C)C(=O)C=CC(C)=CC1CN1C(=O)c2ccccc2C1=O (stereo not shown) [Compound 31, 20,23-Di-N-Phthalimido-20,23-dideoxy-20-dihydro-OMT]	> 128	> 128	16 (≈ 18.6 µM)	12.5 (≈ 14.6 µM)	25 (≈ 29.1 µM)	> 50	12.5 (≈ 14.6 µM)	12.5 (≈ 14.6 µM)	> 50	25 (≈ 29.1 µM)	16 (≈ 18.6 µM)	> 128	4 (≈ 4.66 µM)	> 128	4 (≈ 4.66 µM)	> 128	2 (≈ 2.33 µM)	4 (≈ 4.66 µM)	4 (≈ 4.66 µM)	–	MIC ([6]; broth-dilution microtiter, Pasteurella hemolytica 41D, read-out: MIC): > 50 µg/mL; MIC ([8]; broth-dilution microtiter, Pasteurella hemolytica 22C, read-out: MIC): > 50 µg/mL; MIC (Mycoplasma hyorhinis): 50 µg/mL (≈ 58.3 µM); MIC [10]: > 50 µg/mL; MIC ([11]; broth-dilution microtiter, Pasteurella hemolytica 23C, read-out: MIC): > 50 µg/mL; MIC [12]: > 50 µg/mL; MIC [13]: > 50 µg/mL; MIC [14, 28]: 8 µg/mL (≈ 9.32 µM); MIC [16, 30]: 16 µg/mL (≈ 18.6 µM); MIC [19, 31]: > 128 µg/mL
CCC1CC(C)C(=O)C=CC(C)=CC(COC(C)=O)C(CC)OC(=O)CC(O)C(C)C1OC1OC(C)C(OC(C)=O)C(N(C)C)C1OC(C)=O (stereo not shown) [Compound 40, 2',4',23-Tri-O-acetyl-20-deoxy-20-dihydro-OMT]	–	–	16 (≈ 22.5 µM)	6.25 (≈ 8.8 µM)	> 50	12.5 (≈ 17.6 µM)	6.25 (≈ 8.8 µM)	12.5 (≈ 17.6 µM)	25 (≈ 35.2 µM)	> 50	8 (≈ 11.3 µM)	> 128	4 (≈ 5.63 µM)	> 128	4 (≈ 5.63 µM)	> 128	4 (≈ 5.63 µM)	4 (≈ 5.63 µM)	4 (≈ 5.63 µM)	4 (≈ 5.63 µM)	MIC ([6]; Pasteurella, 41D): 50 µg/mL (≈ 70.4 µM); MIC ([8]; Pasteurella, 22C): 50 µg/mL (≈ 70.4 µM); MIC (Mycoplasma hyorhinis): 50 µg/mL (≈ 70.4 µM); MIC [10]: 25 µg/mL (≈ 35.2 µM); MIC ([11]; Pasteurella, 23C): 50 µg/mL (≈ 70.4 µM); MIC [12]: 12.5 µg/mL (≈ 17.6 µM); MIC [13]: 25 µg/mL (≈ 35.2 µM); MIC [14, 28]: 8 µg/mL (≈ 11.3 µM); MIC [16, 30]: 16 µg/mL (≈ 22.5 µM); MIC [19, 31]: 16 µg/mL (≈ 22.5 µM)
CCC1OC(=O)CC(O)C(C)C(OC2OC(C)C(O)C(N(C)C)C2O)C(CCO)CC(C)C(=O)C=CC(C)=CC1COC(=O)CCc1ccccc1 (stereo not shown) [Compound 52, 20-Dihydro-23-O-phenylpropionyl-OMT]	8 (≈ 10.9 µM)	8 (≈ 10.9 µM)	–	–	–	–	–	–	–	–	2 (≈ 2.73 µM)	8 (≈ 10.9 µM)	0.5 (≈ 0.683 µM)	> 128	0.5 (≈ 0.683 µM)	–	0.25 (≈ 0.342 µM)	0.5 (≈ 0.683 µM)	0.5 (≈ 0.683 µM)	0.5 (≈ 0.683 µM)	MIC ([3]; Staphylococcus aureus, X400): 1 µg/mL (≈ 1.37 µM); MIC [14]: 1 µg/mL (≈ 1.37 µM); MIC ([16]; Streptococcus pyogenes, C203): 0.25 µg/mL (≈ 0.342 µM); MIC ([19]; Klebsiella pneumoniae, X26): 4 µg/mL (≈ 5.47 µM); MIC (Escherichia coli EC14; Escherichia coli, EC14): 64 µg/mL (≈ 87.4 µM)
CCC1OC(=O)CC(O)C(C)C(OC2OC(C)C(O)C(N(C)C)C2O)C(CCN(c2ccccc2)c2ccccc2)CC(C)C(=O)C=CC(C)=CC1CO (stereo not shown) [Compound 56, 20-Diphenylamino-20-deoxy-20-dihydro-OMT]	–	–	–	–	–	–	–	–	–	–	–	> 128	4 (≈ 5.33 µM)	> 128	2 (≈ 2.66 µM)	> 128	1 (≈ 1.33 µM)	2 (≈ 2.66 µM)	2 (≈ 2.66 µM)	1 (≈ 1.33 µM)	MIC ([1]; Haemophilus influenzae, 76): 16 µg/mL (≈ 21.3 µM); MIC ([2]; Haemophilus influenzae): 32 µg/mL (≈ 42.6 µM); MIC ([3]; Staphylococcus aureus, X400): 4 µg/mL (≈ 5.33 µM); MIC [14]: 4 µg/mL (≈ 5.33 µM); MIC [15]; 9960: 8 µg/mL (≈ 10.7 µM); MIC ([16]; Streptococcus pyogenes, C203): 2 µg/mL (≈ 2.66 µM)
